“Also recorded” adds a separate entry of the source.
Experiments:
[1] = biological target: T1, recombinant rat α4β2γ2 GABAA receptors (Rattus norvegicus, UniProt P28471); experiment: Whole-cell patch-clamp, modulation of GABA (EC20)-induced currents in transfected HEK 293 cells, α4β2γ2; assay type: cell-based
T1 construct: expressed in transfected cells; host or cells: HEK 293
Description: For electrophysiological recording HEK-293 cells were passaged and replated on 12-mm glass coverslips located in 9.6-cm plastic dishes filled with 10 ml of Minimum Essential Medium (MEM, Gibco) supplemented with 158 mg/l sodium bicarbonate, 2 mM glutamine (Gibco), 100 U/ml penicillin-streptomycin (Gibco), and 10% foetal calf serum (Gibco). Cultures were maintained at 37° C. in a humidified […]/5% CO2 atmosphere for 2-3 days.
Transfection with recombinant rat GABAA receptors was carried out as described in detail (Korpi and Lüddens, 1993, Lüddens and Korpi, 1995b). Briefly, HEK 293 cells were transfected in triple combinations using the phosphate precipitation method with rat GABAA receptor cDNAs in eukaryotic expression vectors (Pritchett, 1990) for the α, β and γ subunits. For optimal receptor expression, final concentrations (μg vector DNA per 9.6 cm tissue culture plate) were: α1, 2; α2 4.8; α3, 1.2; α4, 10; α5, 0.8; β2, 0.4; and γ2S, 0.3. The γ2S variant is abbreviated γ2 in the remainder of the text. To identify transfected cells all subunit combinations were co-transfected with 1 μg per plate of pNI-EGFP.
Two days after transfection single coverslips containing HEK 293 cells were placed in a recording chamber mounted on the movable stage of a fluorescence microscope (Olympus IX70) and perfused with a defined saline solution containing (in mM): 130 NaCl, 5.4 KCl, 2 CaCl2, 2 MgSO4, 10 glucose, 5 sucrose, and 10 HEPES (free acid), pH adjusted to 7.35 with about 35 mM NaOH. Transfected cells were identified by their green fluorescence due to the expression of the pNI-EGFP vector and ligand-mediated membrane currents of these cells were studied in the whole-cell configuration of the patch-clamp technique (Hamil et al., 1981). […]
Seal resistances >1 GΩ were routinely obtained by applying gentle suction to the pipettes. Membrane rupture was monitored electrically as an increase in capacity. […]
In all cells recorded the presence of the γ2 subunit in the heteropentamere was monitored by the application of 1 μM zolpidem plus the EC20 of GABA before testing the experimental drugs. […]

[2] = system: female Wistar rats, MK-801-induced stereotypies, hyperactivity and ataxia; experiment: MK-801-induced behaviour, rat model of psychosis (Example 1); assay type: in vivo; details: MK-801 0.2 mg/kg i.p.
Description: The behaviour induced by the NMDA antagonist MK-801 is generally accepted as a rat model of psychosis. MK-801 induces stereotypies, hyperactivity and ataxia in rats after intraperitoneal administration.
Locomotor activity of the rats is recorded by the MotiTest Apparatus (TSE, Bad Homburg, Germany). The test area consisted of a squared arena ([…] with protective plexiglass walls (20 cm of height) where rats could freely move. Horizontal movements were recorded by 32 infrared photocells arranged along the bottom of each wall of the arena. Vertical movements (rearings) were recorded by a horizontal row of 32 infrared photocells 12 cm above the floor. The following parameters are measured by the computer program “ActiMot” (TSE, Bad Homburg, Germany): • active time [s] and total distance travelled [m]
Stereotypies, divided into stereotyped sniffing and other stereotypies, and ataxia are scored by the experimenter every five minutes for one hour (12 intervals) according to the method described by Andiné et al. (1999). The scores of the 12 intervals are added for each parameter.
The day of experiment the female rats are placed in the laboratory and receive the test compound, the reference substance or vehicle at the appropriate time prior to test. MK-801 0.2 mg/kg is intraperitoneally administered 10 minutes prior to test.
At the beginning of the test the rats are placed in the centre of the squared arena of the MotiTest apparatus. Behaviour of the rats is recorded for one hour. After each run animals are removed and the boxes thoroughly cleaned and dried.

[3] = 30 mg/kg p.o. 1 h prior to test

T1 sequence (P28471 36-552): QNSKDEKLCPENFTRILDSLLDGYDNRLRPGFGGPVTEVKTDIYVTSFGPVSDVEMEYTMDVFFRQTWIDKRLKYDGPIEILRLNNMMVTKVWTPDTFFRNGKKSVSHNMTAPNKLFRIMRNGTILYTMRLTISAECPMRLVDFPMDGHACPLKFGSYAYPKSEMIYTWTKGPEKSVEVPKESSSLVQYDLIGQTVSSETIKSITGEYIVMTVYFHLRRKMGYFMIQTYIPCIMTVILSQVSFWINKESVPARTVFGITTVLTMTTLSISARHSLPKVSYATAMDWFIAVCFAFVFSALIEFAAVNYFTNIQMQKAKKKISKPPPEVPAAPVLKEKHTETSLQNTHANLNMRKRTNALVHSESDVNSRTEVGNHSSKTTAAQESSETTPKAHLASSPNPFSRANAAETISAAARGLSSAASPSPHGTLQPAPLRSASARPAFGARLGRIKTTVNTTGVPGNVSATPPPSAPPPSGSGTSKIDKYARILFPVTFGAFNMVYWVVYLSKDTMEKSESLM

O=C1N=C(N2CCCCC2)CN1c1ccc(Cl)cc1 [ELB139, 1-(4-chlorophenyl)-4-piperidinoimidazolin-2-one]
modulation of GABA-induced currents (in words) ([1]; α4-containing receptors, diazepam up to 1 μM, ELB139 at all concentrations tested): unaffected; also recorded: not active | EC50 ([1]; α4β2γ2, applied with approximate GABA EC20, read-out: EC50 (ELB139)): > 30 µM | MK-801-induced ataxia [2, 3]: significantly reversed | MK-801-induced other stereotypies [2, 3]: significantly reversed | MK-801-induced stereotyped sniffing [2, 3]: significantly reversed | MK-801-stimulated activity [2, 3]: did not reduce | total distance travelled increased by MK-801 [2, 3]: distinctly reduced | all parameters induced by MK-801 ([2]; 60 mg/kg p.o. 1 h prior to test): significantly reduced all parameters

From patent US20050032863A1, “Method of treating or preventing central nervous system disorders with compounds having selectivity for the alpha 3 subunit of the benzodiazepine receptor” (priority 2003, published 2005)
